For 18 compounds, T/C results are on record in PubChem BioAssay AID328 (DTP/NCI, 2004).

Structures are written as SMILES. Where “and” joins values, the source holds several entries; their conditions need not be identical. Identical values can stand only once. Toxic doses and inconclusive results are not listed.

The test system of the assay is BDF1 mice, P388 leukemia ip, median survival T/C. The assay is described as follows: NCI In Vivo Anticancer Drug Screen. Data for tumor model P388 Leukemia (intraperitoneal) in B6D2F1 (BDF1) mice. As to conditions: endpoint: median survival time, higher = longer survival. An outline of the steps: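 Antitumour effect was judged in vivo: survival in drug-treated mice, normalised to that of vehicle-dosed controls, gives the reported T/C.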

[1] abbreviates: dose: 25.0 mg/kg/injection, schedule: Q01DX009 (ip), vehicle: saline with Tween-80.
[2] abbreviates: dose: 50.0 mg/kg/injection, schedule: Q01DX009 (ip), vehicle: saline with Tween-80.
Where [3] appears, read: dose: 100.0 mg/kg/injection, schedule: Q01DX009 (ip), vehicle: saline with Tween-80.
Where [4] appears, read: dose: 200.0 mg/kg/injection, schedule: Q01DX009 (ip), vehicle: saline with Tween-80.
[5] abbreviates: dose: 50.0 mg/kg/injection, schedule: Q04DX003 (ip), vehicle: Klucel (hydroxypropylcellulose) (HPC).
The mark [6] stands for this setting: dose: 100.0 mg/kg/injection, schedule: Q04DX003 (ip), vehicle: Klucel (hydroxypropylcellulose) (HPC).
Where [7] appears, read: dose: 200.0 mg/kg/injection, schedule: Q04DX003 (ip), vehicle: Klucel (hydroxypropylcellulose) (HPC).
Setting [8] is: dose: 100.0 mg/kg/injection, schedule: Q04DX003 (ip), vehicle: saline with Tween-80.
Setting [9] is: dose: 200.0 mg/kg/injection, schedule: Q04DX003 (ip), vehicle: saline with Tween-80.
[10] abbreviates: dose: 400.0 mg/kg/injection, schedule: Q04DX003 (ip), vehicle: saline with Tween-80.
[11] abbreviates: dose: 25.0 mg/kg/injection, schedule: Q01DX009 (ip), vehicle: saline.

For the compound `O=C(O)c1ccc(=O)oc1`, the T/C is 108 % of control (dose: 12.5 mg/kg/injection, schedule: Q01DX009 (ip), vehicle: saline with Tween-80); 99 % of control and 100 % of control under setting [1]; 108 % of control under setting [2]; 124 % of control under setting [3]; 124 % of control under setting [4].
Regarding `O=C(O)CCSc1nc2ccccc2s1`, the T/C under setting [5] was 100 % of control, the T/C under setting [6] was 100 % of control and the T/C under setting [7] was 113 % of control.
With `CCCCOB(/C=C/Sc1ccccc1)OCCCC`, the T/C by setting is: under setting [3], 120 % of control; under setting [8], 115 % of control; (dose: 132.0 mg/kg/injection, schedule: Q01DX009 (ip), vehicle: saline with Tween-80) 118 % of control; under setting [9], 120 % of control; (dose: 300.0 mg/kg/injection, schedule: Q01DX009 (ip), vehicle: saline with Tween-80) 122 % of control; under setting [10], 110 % of control.
Consider `CN=C(NC(C)C)c1ccc(NC(=O)c2ccc(C(=O)Nc3ccc(C(=NC)NC(C)C)cc3)cc2)cc1`, for which the T/C reads like this: (dose: 16.0 mg/kg/injection, schedule: Q04DX003 (ip), vehicle: saline with Tween-80) 118 % of control; (dose: 42.2 mg/kg/injection, schedule: Q04DX003 (ip), vehicle: saline with Tween-80) 150 % of control; (dose: 64.0 mg/kg/injection, schedule: Q04DX003 (ip), vehicle: saline with Tween-80) 150 % of control; (dose: 96.0 mg/kg/injection, schedule: Q04DX003 (ip), vehicle: saline with Tween-80) 150 % of control.
For `CCCC(C)(C)SSC(C)(C)CCC`, the T/C by setting is: under setting [1], 90 % of control; under setting [2], 90 % of control and 100 % of control; under setting [3], 95 % of control and 118 % of control; under setting [8], 90 % of control; under setting [9], 113 % of control.
With `O=C(CCl)N1CCc2ccccc21`, the T/C (dose: 25.0 mg/kg/injection, schedule: Q01DX009 (ip), vehicle: Klucel (hydroxypropylcellulose) (HPC)) is 104 % of control; the T/C (dose: 25.0 mg/kg/injection, schedule: Q04DX003 (ip), vehicle: Klucel (hydroxypropylcellulose) (HPC)) was 90 % of control; the T/C (dose: 50.0 mg/kg/injection, schedule: Q01DX009 (ip), vehicle: Klucel (hydroxypropylcellulose) (HPC)) was 100 % of control; the T/C under setting [5] was 100 % of control; the T/C (dose: 100.0 mg/kg/injection, schedule: Q01DX009 (ip), vehicle: Klucel (hydroxypropylcellulose) (HPC)) was 86 % of control; the T/C under setting [6] was 95 % of control.
`CC(=O)Nc1ccc(NC(=O)NCCCl)cc1`: the T/C runs as follows: under setting [5], 110 % of control; (dose: 59.0 mg/kg/injection, schedule: Q01DX009 (ip), vehicle: Klucel (hydroxypropylcellulose) (HPC)) 100 % of control; (dose: 88.0 mg/kg/injection, schedule: Q01DX009 (ip), vehicle: Klucel (hydroxypropylcellulose) (HPC)) 100 % of control; under setting [6], 110 % of control; (dose: 133.0 mg/kg/injection, schedule: Q01DX009 (ip), vehicle: Klucel (hydroxypropylcellulose) (HPC)) 115 % of control; (dose: 133.0 mg/kg/injection, schedule: Q04DX003 (ip), vehicle: Klucel (hydroxypropylcellulose) (HPC)) 90 % of control and 100 % of control. For the same compound, the T/C was 90 % of control and 100 % of control under setting [7]; 90 % of control (dose: 300.0 mg/kg/injection, schedule: Q04DX003 (ip), vehicle: Klucel (hydroxypropylcellulose) (HPC)).
As to `Cc1ccc(C=C(C(=O)CCN(C)C)C(=O)CCN(C)C)cc1`, the T/C by setting is: (dose: 50.0 mg/kg/injection, schedule: Q01DX005 (ip), vehicle: saline) 87 % of control; (dose: 100.0 mg/kg/injection, schedule: Q01DX005 (ip), vehicle: saline) 109 % of control; (dose: 200.0 mg/kg/injection, schedule: Q01DX005 (ip), vehicle: saline) 119 % of control.
For `CCN(CC)C(=O)c1cccc(COc2ccc(N3C(N)=NC(N)=NC3(C)C)cc2Cl)c1`, the T/C was 110 % of control (dose: 16.5 mg/kg/injection, schedule: Q01DX009 (ip), vehicle: saline); 120 % of control under setting [11]; 120 % of control (dose: 37.5 mg/kg/injection, schedule: Q01DX009 (ip), vehicle: saline).
Regarding `CCCCCCCCCCCCCCCC(=O)OCC1OC(CO)(OC2OC(CO)C(O)C(O)C2O)C(O)C1O` (stereo unspecified), the T/C under setting [6] is 104 % of control and the T/C under setting [7] is 112 % of control.
On to `CCN(CC)C(=S)SSC(=S)N(CC)CC`, for which the T/C was 104 % of control (dose: 75.0 mg/kg/injection, schedule: Q01DX001 (ip), vehicle: Klucel (hydroxypropylcellulose) (HPC)); 104 % of control (dose: 150.0 mg/kg/injection, schedule: Q01DX001 (ip), vehicle: Klucel (hydroxypropylcellulose) (HPC)); 95 % of control (dose: 300.0 mg/kg/injection, schedule: Q01DX001 (ip), vehicle: Klucel (hydroxypropylcellulose) (HPC)).
In the case of `COc1cc(OC)cc(C2N(Cc3ccc(OC)c(OC)c3)CCN2Cc2ccc(OC)c(OC)c2)c1`, the T/C was 100 % of control under setting [3]; 100 % of control under setting [8]; 109 % of control under setting [4]; 100 % of control under setting [9]; 109 % of control (dose: 400.0 mg/kg/injection, schedule: Q01DX009 (ip), vehicle: saline with Tween-80); 115 % of control under setting [10].
On to `CC(C)(C)c1cc(C(=O)O)c(Sc2c(C(=O)O)cc(C(C)(C)C)cc2C(C)(C)O)c(C(C)(C)O)c1`, for which the T/C is 101 % of control (dose: 100.0 mg/kg/injection, schedule: Q01DX001 (ip), vehicle: saline with Tween-80); 101 % of control (dose: 200.0 mg/kg/injection, schedule: Q01DX001 (ip), vehicle: saline with Tween-80); 113 % of control (dose: 400.0 mg/kg/injection, schedule: Q01DX001 (ip), vehicle: saline with Tween-80).
Regarding `O=CN(O)CC(=O)O.[Ni]`, the T/C runs as follows: (dose: 1.56 mg/kg/injection, schedule: Q04DX003 (ip), vehicle: saline) 90 % of control; (dose: 2.3 mg/kg/injection, schedule: Q01DX001 (ip), vehicle: saline) 105 % of control; (dose: 3.12 mg/kg/injection, schedule: Q01DX009 (ip), vehicle: saline) 120 % of control; (dose: 3.12 mg/kg/injection, schedule: Q04DX003 (ip), vehicle: saline) 109 % of control; (dose: 6.25 mg/kg/injection, schedule: Q01DX009 (ip), vehicle: saline) 115 % of control; (dose: 6.25 mg/kg/injection, schedule: Q04DX003 (ip), vehicle: saline) 109 % of control. The T/C is 95 % of control (dose: 9.2 mg/kg/injection, schedule: Q01DX001 (ip), vehicle: saline); 100 % of control (dose: 9.2 mg/kg/injection, schedule: Q04DX003 (ip), vehicle: saline); 113 % of control (dose: 13.0 mg/kg/injection, schedule: Q01DX001 (ip), vehicle: saline); 109 % of control (dose: 13.0 mg/kg/injection, schedule: Q04DX003 (ip), vehicle: saline); 109 % of control (dose: 14.0 mg/kg/injection, schedule: Q04DX003 (ip), vehicle: saline); 113 % of control (dose: 20.0 mg/kg/injection, schedule: Q01DX001 (ip), vehicle: saline). Moreover, the T/C reads like this: (dose: 21.0 mg/kg/injection, schedule: Q04DX003 (ip), vehicle: saline) 118 % of control; (dose: 30.0 mg/kg/injection, schedule: Q01DX001 (ip), vehicle: saline) 113 % of control; (dose: 30.0 mg/kg/injection, schedule: Q04DX003 (ip), vehicle: saline) 113 % of control.
In the case of `CCCCCCCCSC(=S)N(C)NC(=O)c1ccccn1`, the T/C is 99 % of control under setting [2] and 105 % of control under setting [3].
For the compound `NCCNCC[OH2+].NCCNCC[OH2+].[Cu+2].[O-][Cl+3]([O-])([O-])[O-]`, the T/C was 100 % of control (dose: 12.5 mg/kg/injection, schedule: Q01DX009 (ip), vehicle: saline) and 105 % of control under setting [11].
As to `CC(=O)c1ccc[n+](C)c1`, the T/C reads like this: (dose: 100.0 mg/kg/injection, schedule: Q01DX009 (ip), vehicle: saline) 100 % of control; (dose: 200.0 mg/kg/injection, schedule: Q01DX009 (ip), vehicle: saline) 95 % of control.
In the case of `CC1=NNC(=O)/C1=C\c1ccccc1`, the T/C is, setting by setting: under setting [1], 103 % of control; under setting [2], 99 % of control; under setting [3], 108 % of control.
